{
  "source": "paper PMC5560554",
  "about": "“Targeting of CDK9 with indirubin 3’-monoxime safely and durably reduces HIV viremia in chronically infected humanized mice” (PLoS ONE, 2017)",
  "key": {"[1]": {"test": "Pharmacokinetics of IM in NSG mice (single i.p. injection, plasma by HPLC)", "assay_type": "in vivo", "conditions": "for Conc (plasma IM), individual mice: 40 mg/kg", "procedure": "Fasting, female NSG mice (n = 16) were injected with 40 mg/kg IM via i.p. Blood samples were obtained pre-dose (30 minutes before compound injection) and at 5, 15, 30, 60, 120, 180, 240 and 300 minutes after injection using a sparse sampling design (n = 2 samples per mouse, n = 4 samples per time point). Separated plasma was further extracted and processed for analysis, and IM concentrations determined using HPLC analysis. In brief, sample processing involved extraction of plasma (30 μL) with 400 μL acetonitrile and 2 μg/mL internal standard ([…]). The sample was briefly vortexed and centrifuged (12 minutes, 6°C), with transfer of 400 μL of supernatant to a clean test tube. The sample was evaporated to dryness under nitrogen, reconstituted in 50 μL of methanol:water (75:25), and 20 μL was injected onto the column. The concentration of primary analyte (IM) and internal standard (IS) d4-estrone were determined using a Shimadzu Nexera X2 liquid chromatography system coupled with a SPD-M30A UV-VIS diode array detector. The liquid chromatography separation was performed on a Prodigy ODS-3V C18 column, 250 × 4.6 mm, 5 μm. The mobile phase consisted of 35% water and 65% Methanol (Optima LC-MS grade) delivered at a flow rate of 0.85 mL/min. Retention times for IM and IS were 13 and 15 minutes, respectively, with detection at 280 nm. The IM peak identity was confirmed using the complete 240–600 nm absorbance spectra. The standard concentration curve was linear over the range of 0.025 μg/mL– 4.0 μg/mL using regression plots of IM to internal standard peak area ratios versus drug concentrations derived with 1/x2 weighting. […] Non-compartmental pharmacokinetic parameters were determined from pooled average data at each time point using Phoenix WinNonlin v6.4 (Certara, St. Louis, MO).\nWe evaluated the pharmacokinetics of IM in NSG mice following a single i.p. injection of 40 mg/kg, a dose that inhibited plasma HIV RNA levels by 2 log 10 units in our previous study. Data (S1 Table) were plotted on concentration-time curves and pharmacokinetic parameter values determined (Fig 1). […] Thus, IM concentrations above HIV EC50 values are rapidly achieved and maintained for > 3 h following i.p. injection of 40 mg/kg IM.\nFig 1 Pharmacokinetics of IM in mice. NSG mice (n = 16) were i.p. injected with 40 mg/kg IM. Blood samples were obtained pre-dose and at 5, 15, 30, 60, 120, 180, 240 and 300 minutes after injection using a sparse sampling design (n = 2 samples per mouse, n = 4 samples per time point). Separated plasma was further extracted and processed for analysis, and IM concentrations were determined using HPLC analysis."}, "[2]": {"test_system": "HIV BaL", "test": "Antiviral activity of IM during chronic HIV infection in HSC-NSG mice", "assay_type": "in vivo", "text": "NSG mice were humanized at the age of 2–3 days, following whole body irradiation ([…]) and hepatic injection of 1.2x10^5 human cord blood-derived CD34+ cells (Lonza, Walkersville, MD). At week 12, mice were checked for human cell reconstitution by double staining with FITC-conjugated antihuman CD45 antibody (BD Pharmingen) and APC-conjugated antimouse CD45 antibody (BD Pharmingen). Mice were considered successfully transplanted if they had ≥ 5% of human CD45+ cells in peripheral blood. Successfully transplanted mice were infected, via i.p. injection, with 15,000 TCID50 units of the CCR5-tropic HIV reference strain BaL.\nPlasma HIV RNA levels were quantified by an in-house real-time RT PCR using HIV Gag primers SK38/SK39 and SYBR green dyes, as in our previous studies. The assay has a sensitivity of 150 copies HIV RNA/40μL plasma. Percentages of human CD4+ and CD8+ T cells were determined by flow cytometry analysis using fluorochrome labeled antibodies against human CD4 (clone SK3), CD8 (SK1), CD3 (clone SK7), and CD45 (clone 2D1) (BD Biosciences). Data were acquired in a BD FACSCalibur flow cytometer and analyzed using FLowJo software (v. 9.7.7). CD4/CD8 ratios were calculated and plotted using GraphPad Prism 5.0 software.\nWe next evaluated the antiviral activity of IM in HSC-NSG mice chronically infected with HIV. For this, 12-week old HSC-NSG mice were infected with HIV BaL. Five weeks after infection, animals initiated daily i.p. treatment with IM (5 and 20 mg/kg/day) or vehicle control for 15 weeks. Each experimental and control group had 5 mice. Viral replication was monitored by measuring HIV RNA in plasma by RT-PCR. Blood CD4/CD8 ratios were measured by Flow Cytometry. Mice treated with 5 mg/kg dose had modest, but significant, declines in plasma HIV RNA during the 15-week treatment period (Fig 2a). By the end of the study, plasma HIV RNA levels were 2.1 log10 units lower in mice treated with 5 mg/kg IM compared to controls. The CD4/CD8 ratios increased to similar levels in IM (5 mg/kg) and control groups for most of the study duration.\nFig 2 IM reduces HIV viremia in HSC-NSG chronically infected with HIV. Twelve-week old HSC-NSG mice were infected with HIV BaL. Five weeks after infection, treatment was initiated at IM doses of 0 (vehicle alone) and 5 mg/kg/day. Each group had 5 mice. Treatment was continued for 15 weeks. Blood samples collected at the indicated time points were evaluated for plasma HIV RNA levels by quantitative RT-PCR (A), and for CD4/CD8 ratios by Flow Cytometry Analysis (B). At each time point, data were tested for statistical significant differences by Mann-Whitney U tests (GraphPad Prism Software, La Jolla, CA); P < 0.05 was considered significant. Shaded boxes indicate duration of treatment."}, "[3]": {"conditions": "HIV BaL, 20 mg/kg/day i.p., 5 weeks, limited data (S1 Fig)"}},
  "note": "Values joined by “and” are separate entries in the source; they are usually repeats but may differ in a detail not shown here. Equal entries are not always repeated.",
  "data": [
    {"smiles": "O=C1Nc2ccccc2/C1=C1/Nc2ccccc2/C1=N\\O", "note": "[IM, Indirubin 3’-monoxime]", "values": [
      {"measurement": "Conc (plasma IM), individual mice", "setting": "[1]; 5 min after i.p. 40 mg/kg", "result": "1056 ng/mL and 1492 ng/mL and 1336 ng/mL and 54 ng/mL"},
      {"measurement": "Conc (plasma IM), individual mice", "setting": "[1]; 15 min after i.p. 40 mg/kg", "result": "3005 ng/mL and 2975 ng/mL and 3996 ng/mL and 2773 ng/mL"},
      {"measurement": "Conc (plasma IM), individual mice", "setting": "[1]; 30 min after i.p. 40 mg/kg", "result": "4918 ng/mL and 2550 ng/mL and 29 ng/mL and 3217 ng/mL"},
      {"measurement": "Conc (plasma IM), individual mice", "setting": "[1]; 60 min after i.p. 40 mg/kg", "result": "2983 ng/mL and 2619 ng/mL and 2828 ng/mL and 2005 ng/mL"},
      {"measurement": "Conc (plasma IM), individual mice", "setting": "[1]; 120 min after i.p. 40 mg/kg", "result": "4276 ng/mL and 1171 ng/mL and 1632 ng/mL and 14 ng/mL"},
      {"measurement": "Conc (plasma IM), individual mice", "setting": "[1]; 180 min after i.p. 40 mg/kg", "result": "380 ng/mL and 1062 ng/mL and 56 ng/mL and 217 ng/mL"},
      {"measurement": "Conc (plasma IM), individual mice", "setting": "[1]; 240 min after i.p. 40 mg/kg", "result": "285 ng/mL and 58 ng/mL and 14 ng/mL and 376 ng/mL"},
      {"measurement": "Conc (plasma IM), individual mice", "setting": "[1]; 300 min after i.p. 40 mg/kg", "result": "44 ng/mL and 79 ng/mL and 83 ng/mL and 35 ng/mL"},
      {"measurement": "AUC", "setting": "[1]; single i.p. 40 mg/kg, plasma", "result": "370 ± 64", "unit": "µg·min/mL"},
      {"measurement": "elimination t1/2", "setting": "[1]; single i.p. 40 mg/kg, plasma", "result": 42.4, "unit": "min"},
      {"measurement": "maximum concentration of IM in plasma (Cmax)", "setting": "[1]; single i.p. 40 mg/kg, plasma", "result": "3190 ± 270", "unit": "ng/mL"},
      {"measurement": "Cmax", "setting": "[1]; single i.p. 40 mg/kg, plasma, converted from μg/mL", "result": "11.5 ± 0.97", "unit": "µM"},
      {"measurement": "human T cells in blood", "setting": "[2]; 20 mg/kg/day i.p., euthanized after 5 weeks of treatment", "result": "progressive losses in human T cells in blood"},
      {"measurement": "CD4/CD8 ratios by the end of the study vs control", "setting": "[2]; HIV BaL chronic infection, 5 mg/kg/day i.p. for 15 weeks", "result": "significantly higher"},
      {"measurement": "plasma HIV RNA levels lower compared to controls by the end of the study", "setting": "[2]; HIV BaL chronic infection, 5 mg/kg/day i.p. for 15 weeks, 5 mg/kg/day", "result": "2.1 log10 units and ~ 2 log10 units"},
      {"measurement": "increases in CD4/CD8 ratios", "setting": "[2]; [3]", "result": "no consistent inhibition of plasma HIV RNA or increases in CD4/CD8 ratios"},
      {"measurement": "inhibition of plasma HIV RNA", "setting": "[2]; [3]", "result": "no consistent inhibition of plasma HIV RNA"}
    ]}
  ]
}
